From patent US20230312556A1, “ARYLAMIDE COMPOUND, PHARMACEUTICAL COMPOSITION COMPRISING SAME, AND PREPARATION METHOD THEREFOR AND USE THEREOF” (SICHUAN KELUN-BIOTECH BIOPHARMACEUTICAL CO., LTD., priority 2020, published 2023)
One block for each compound: values may come before it.

Key:
[1] = tested on: human hepatocellular carcinoma cell HepG2 (NRAS-Q61K mutation); experiment: Cancer cell proliferation inhibition assay, HepG2; format: cell-based; details: 72 h incubation, Cell Titer Glo
Text: (§1) The inhibitory effects of the compounds of the present invention on cancer cell proliferation were further evaluated by testing the effects of the compounds of the present invention on the growth of cancer cells.
(§2) In this example, human melanoma cell A375 (BRAF-V600E mutation, purchased from the Cell Bank of the Chinese Academy of Sciences) and human hepatocellular carcinoma cell HepG2 (NRAS-Q61K mutation, purchased from ATCC, USA) were employed.
(§3) In this example, the test compounds at various concentrations (100000 nM, 30000 nM, 10000 nM, 3000 nM, 1000 nM, 300 nM, 100 nM, 30 nM, 10 nM) were added to the above cells, and the incubation was performed for 72 h. The inhibitory activity of the compounds was tested by measuring ATP in living cells using the Cell Titer Glo Kit (Promega).
(§4) The IC50 values of the compounds of the present invention for each tested cell were determined, and the test results are as follows: […]

[2] = tested on: human melanoma cell A375 (BRAF-V600E mutation); experiment: Cancer cell proliferation inhibition assay, A375; format: cell-based; details: A-375, 72 h incubation, Cell Titer Glo
Text: as §1, §2, §3, §4

SMILES: Cc1ccc2c(Nc3cccc(Cl)c3)nccc2c1NC(=O)c1cnc2c(N)ncnn12 [Compound 12, 4-amino-N-(1-((3-chlorophenyl)amino)-6-methylisoquinolin-5-yl)imidazo[2,1-f][1,2,4]triazine-7-carboxamide]
IC50 [1]: 13.9 ± 1.7 nM

SMILES: Cc1ccc2c(C(O)c3ccccc3Cl)nccc2c1NC(=O)c1cccc2c(N)ncnc12 (stereo not drawn) [Compound 24, 4-amino-N-(1-((2-chlorophenyl)(hydroxy)methyl)-6-methylisoquinolin-5-yl)quinazoline-8-carboxamide]
IC50 [2]: 70.7 ± 6.15 nM

SMILES: Cc1ccc2c(Nc3cccc(Cl)c3F)nccc2c1NC(=O)c1cnc2c(N)ncnn12 [Compound 30, 4-amino-N-(1-((3-chloro-2-fluorophenyl)amino)-6-methylisoquinolin-5-yl)imidazo[2,1-f][1,2,4]triazine-7-carboxamide]
IC50 [1]: 13.3 ± 0.9 nM
IC50 [2]: 89.3 ± 11.3 nM

SMILES: Cc1cc(C(=O)Nc2c(C)ccc3c(Nc4cccc(Cl)c4F)nccc23)c2ncnc(N)c2c1 [Compound 45, 4-amino-N-(1-((3-chloro-2-fluorophenyl)amino)-6-methylisoquinolin-5-yl)-6-methylquinazoline-8-carboxamide]
IC50 [1]: 64.3 ± 5.08 nM
IC50 [2]: 74.2 ± 3.5 nM

SMILES: Cc1ccc2c(Nc3cccc(Cl)c3F)nccc2c1NC(=O)c1cc(N2CCOCC2)cc2c(N)ncnc12 [Compound 53, 4-amino-N-(1-((3-chloro-2-fluorophenyl)amino)-6-methylisoquinolin-5-yl)-6-morpholinoquinazoline-8-carboxamide]
IC50 [1]: 113 ± 3.35 nM
IC50 [2]: 77.7 ± 2.3 nM

SMILES: Cc1ccc2c(Nc3cccc(Cl)c3F)nccc2c1NC(=O)c1cc(N2CCN(C)CC2)cc2c(N)ncnc12 [Compound 54, 4-amino-N-(1-((3-chloro-2-fluorophenyl)amino)-6-methylisoquinolin-5-yl)-6-(4-methylpiperazin-1-yl)quinazoline-8-carboxamide]
IC50 [1]: 95.6 ± 8.18 nM
IC50 [2]: 108 ± 19.9 nM

SMILES: Cc1ccc2c(Nc3ccc(Cl)cc3F)nccc2c1NC(=O)c1cnc2c(N)ncnn12 [Compound 55, 4-amino-N-(1-((4-chloro-2-fluorophenyl)amino)-6-methylisoquinolin-5-yl)imidazo[2,1-f][1,2,4]triazine-7-carboxamide]
IC50 [1]: 30.4 ± 4.3 nM

SMILES: COc1ccc(Nc2nccc3c(NC(=O)c4cnc5c(N)ncnn45)c(C)ccc23)cc1Cl [Compound 56, 4-amino-N-(1-((3-chloro-4-methoxyphenyl)amino)-6-methylisoquinolin-5-yl)imidazo[2,1-f][1,2,4]triazine-7-carboxamide]
IC50 [1]: 22.2 ± 2.9 nM
IC50 [2]: 67 ± 7.3 nM

SMILES: COc1ccc(Nc2nccc3c(NC(=O)c4cccc5c(N)ncnc45)c(C)ccc23)cc1 [Compound 57, 4-amino-N-(1-((4-methoxyphenyl)amino)-6-methylisoquinolin-5-yl)quinazoline-8-carboxamide]
IC50 [1]: 24.3 ± 3.3 nM
IC50 [2]: 66.1 ± 17 nM

SMILES: Cc1ccc2c(Nc3ccc(N(C)C)nc3)nccc2c1NC(=O)c1cccc2c(N)ncnc12 [Compound 59, 4-amino-N-(1-((6-(dimethylamino)pyridin-3-yl)amino)-6-methylisoquinolin-5-yl)quinazoline-8-carboxamide]
IC50 [1]: 211 ± 16.6 nM
IC50 [2]: 85 ± 5.2 nM

SMILES: COc1ccc(Nc2nccc3c(NC(=O)c4cnc5c(N)ncnn45)c(C)ccc23)c(F)c1 [Compound 61, 4-amino-N-(1-((2-fluoro-4-methoxyphenyl)amino)-6-methylisoquinolin-5-yl)imidazo[2,1-f][1,2,4]triazine-7-carboxamide]
IC50 [1]: 21.3 ± 4.88 nM
IC50 [2]: 141 ± 4.88 nM

SMILES: Cc1ccc2c(Nc3ccc(CN(C)C)c(C(F)(F)F)c3)nccc2c1NC(=O)c1cnc2c(N)ncnn12 [Compound 62, 4-amino-N-(1-((4-((dimethylamino)methyl)-3-(trifluoromethyl)phenyl)amino)-6-methylisoquinolin-5-yl)imidazo[2,1-f][1,2,4]triazine-7-carboxamide]
IC50 [1]: 82.2 ± 10.1 nM
IC50 [2]: 49.1 ± 2.74 nM

SMILES: CC(=O)c1ccc(Nc2nccc3c(NC(=O)c4cccc5c(N)ncnc45)c(C)ccc23)cc1 [Compound 63, N-(1-((4-acetylphenyl)amino)-6-methylisoquinolin-5-yl)-4-aminoquinazoline-8-carboxamide]
IC50 [1]: 28.6 ± 2.7 nM
IC50 [2]: 46.3 ± 1.79 nM

SMILES: Cc1ccc2c(Nc3ccc(Cl)c(CN(C)C)c3)nccc2c1NC(=O)c1cccc2c(N)ncnc12 [Compound 64, 4-amino-N-(1-((4-chloro-3-((dimethylamino)methyl)phenyl)amino)-6-methylisoquinolin-5-yl)quinazoline-8-carboxamide]
IC50 [1]: 75.2 ± 6.9 nM
IC50 [2]: 70.3 ± 8.5 nM

SMILES: Cc1ccc(Nc2nccc3c(NC(=O)c4cccc5c(N)ncnc45)c(C)ccc23)cc1 [Compound 65, 4-amino-N-(6-methyl-1-(p-tolylamino)isoquinolin-5-yl)quinazoline-8-carboxamide]
IC50 [1]: 38.8 ± 3 nM
IC50 [2]: 47.1 ± 9.4 nM

SMILES: Cc1ccc2c(Nc3cccc(Cl)c3F)nccc2c1NC(=O)c1nccc2c(N)ncnc12 [Compound 66, 4-amino-N-(1-((3-chloro-2-fluorophenyl)amino)-6-methylisoquinolin-5-yl)pyrido[3,4-d]pyrimidine-8-carboxamide]
IC50 [1]: 46.1 ± 9.6 nM
IC50 [2]: 166 ± 6.1 nM

SMILES: COc1ccc(Nc2nccc3c(NC(=O)c4cccc5c(N)ncnc45)c(C)ccc23)cc1OC [Compound 68, 4-amino-N-(1-((3,4-dimethoxyphenyl)amino)-6-methylisoquinolin-5-yl)quinazoline-8-carboxamide]
IC50 [1]: 109 ± 12.2 nM
IC50 [2]: 104 ± 20.6 nM

SMILES: Cc1ccc2c(Nc3cccc(Cl)c3F)nccc2c1NC(=O)c1cncc2c(N)ncnc12 [Compound 69, 4-amino-N-(1-((3-chloro-2-fluorophenyl)amino)-6-methylisoquinolin-5-yl)pyrido[4,3-d]pyrimidine-8-carboxamide]
IC50 [1]: 49.6 ± 9.7 nM
IC50 [2]: 94.6 ± 4 nM

SMILES: Cc1ccc2c(Nc3ccc(Cl)c(F)c3F)nccc2c1NC(=O)c1cnc2c(N)ncnn12 [Compound 70, 4-amino-N-(1-((4-chloro-2,3-difluorophenyl)amino)-6-methylisoquinolin-5-yl)imidazo[2,1-f][1,2,4]triazine-7-carboxamide]
IC50 [1]: 59.9 ± 6.8 nM
IC50 [2]: 190 ± 23.8 nM

SMILES: Cc1ccc2c(Nc3ccnc(C(F)(F)F)c3)nccc2c1NC(=O)c1cccc2c(N)ncnc12 [Compound 71, 4-amino-N-(6-methyl-1-((2-(trifluoromethyl)pyridin-4-yl)amino)isoquinolin-5-yl)quinazoline-8-carboxamide]
IC50 [1]: 53 ± 9.7 nM
IC50 [2]: 170 ± 13.8 nM

SMILES: Cc1ccc2c(Nc3cc(F)ccc3F)nccc2c1NC(=O)c1cccc2c(N)ncnc12 [Compound 72, 4-amino-N-(1-((2,5-difluorophenyl)amino)-6-methylisoquinolin-5-yl)quinazoline-8-carboxamide]
IC50 [1]: 64.3 ± 12.3 nM

SMILES: CCOc1ccc(Nc2nccc3c(NC(=O)c4cccc5c(N)ncnc45)c(C)ccc23)c(F)c1 [Compound 74, 4-amino-N-(1-((4-ethoxy-2-fluorophenyl)amino)-6-methylisoquinolin-5-yl)quinazoline-8-carboxamide]
IC50 [1]: 62.3 ± 9.2 nM
IC50 [2]: 62.7 ± 12.5 nM

SMILES: COc1ccc(Nc2nccc3c(NC(=O)c4cccc5c(N)ncnc45)c(C)ccc23)cn1 [Compound 75, 4-amino-N-(1-((6-methoxypyridin-3-yl)amino)-6-methylisoquinolin-5-yl)quinazoline-8-carboxamide]
IC50 [1]: 34 ± 7.6 nM
IC50 [2]: 67.7 ± 15.1 nM

SMILES: Cc1ccc2c(Nc3cccc(Cl)c3F)nccc2c1NC(=O)c1cc(O)cc2c(N)ncnc12 [Compound 76, 4-amino-N-(1-((3-chloro-2-fluorophenyl)amino)-6-methylisoquinolin-5-yl)-6-hydroxyquinazoline-8-carboxamide]
IC50 [1]: 147 ± 19.2 nM
IC50 [2]: 202 ± 5.74 nM

SMILES: Cc1ccc2c(Nc3ccc4c(c3)OCCO4)nccc2c1NC(=O)c1cccc2c(N)ncnc12 [Compound 77, 4-amino-N-(1-((2,3-dihydrobenzo[b][1,4]dioxin-6-yl)amino)-6-methylisoquinolin-5-yl)quinazoline-8-carboxamide]
IC50 [1]: 51.4 ± 8.5 nM
IC50 [2]: 31.6 ± 7.42 nM

SMILES: Cc1ccc2c(Nc3cccc(Cl)c3F)nccc2c1NC(=O)c1ccnc2c(N)ncnc12 [Compound 81, 4-amino-N-(1-((3-chloro-2-fluorophenyl)amino)-6-methylisoquinolin-5-yl)pyrido[3,2-d]pyrimidine-8-carboxamide]
IC50 [1]: 222 ± 29.8 nM

SMILES: Cc1ccc2c(Nc3c(F)c(F)cc(F)c3F)nccc2c1NC(=O)c1cccc2c(N)ncnc12 [Compound 95, 4-amino-N-(6-methyl-1-((2,3,5,6-tetrafluorophenyl)amino)isoquinolin-5-yl)quinazoline-8-carboxamide]
IC50 [1]: 69 ± 18.9 nM

IC50 [1]: 119 ± 29.3 nM
SMILES: Cc1ccc2c(Nc3cc(F)c(F)c(F)c3F)nccc2c1NC(=O)c1cccc2c(N)ncnc12 [Compound 96, 4-amino-N-(6-methyl-1-((2,3,4,5-tetrafluorophenyl)amino)isoquinolin-5-yl)quinazoline-8-carboxamide]

SMILES: Cc1ccc2c(Nc3cccc(OCCN4CCOCC4)c3F)nccc2c1NC(=O)c1cccc2c(N)ncnc12 [Compound 98, 4-amino-N-(1-((2-fluoro-3-(2-morpholinoethoxy)phenyl)amino)-6-methylisoquinolin-5-yl)quinazoline-8-carboxamide]
IC50 [1]: 63.7 ± 4.4 nM

SMILES: Cc1ccc2c(Nc3cccc(Cl)c3F)nccc2c1NC(=O)c1cn(C)c2c(N)ncnc12 [Compound 101, 4-amino-N-(1-((3-chloro-2-fluorophenyl)amino)-6-methylisoquinolin-5-yl)-5-methyl-5H-pyrrolo[3,2-d]pyrimidine-7-carboxamide]
IC50 [1]: 81.1 ± 4.5 nM
